# Results taken from patent publication US8518939B2, “6-pyrimidinyl-pyrimid-4-one derivative” (Mitsubishi Tanabe Pharma Corporation, priority 2007, dated 2013).
# Key:
# [1] = molecular target: CYP2D6 (Homo sapiens, UniProt P10635); experiment: Inhibitory activity on CYP2D6, human recombinant CYPs; type: in vitro ADME; conditions: human recombinant CYP2D6, substrate ethylene glycol ester of luciferin-6'-methyl ether; read-out: CYP 2D6 inhibition, IC50 value
# Experimental: The purpose of this pharmacokinetic study was to investigate the inhibitory effects of test compounds on the specific metabolic activity of human CYP isozymes using human recombinant CYPs in vitro. […] The specific substrate and positive control is ethylene glycol ester of luciferin-6′-methyl ether and quinidine, respectively. The substrate for the CYP isozyme was incubated with human recombinant CYPs in the presence or absence of the test compounds and the metabolic activity of the CYP isozyme was determined. The reaction mixture was preincubated at 37° C. without NADPH generating system. The reaction was started by the addition of NADPH generating system, and then terminated by the addition of acetonitrile. The activities of the human CYP isozymes were measured by fluorescence signal (CYP2D6) of reaction mixture.
# [2] = tested on: scopolamine-treated mice; experiment: Object recognition test, 3 h inter-trial interval, scopolamine-induced episodic memory deficit
# Chain of CYP2D6 (P10635 whole entry): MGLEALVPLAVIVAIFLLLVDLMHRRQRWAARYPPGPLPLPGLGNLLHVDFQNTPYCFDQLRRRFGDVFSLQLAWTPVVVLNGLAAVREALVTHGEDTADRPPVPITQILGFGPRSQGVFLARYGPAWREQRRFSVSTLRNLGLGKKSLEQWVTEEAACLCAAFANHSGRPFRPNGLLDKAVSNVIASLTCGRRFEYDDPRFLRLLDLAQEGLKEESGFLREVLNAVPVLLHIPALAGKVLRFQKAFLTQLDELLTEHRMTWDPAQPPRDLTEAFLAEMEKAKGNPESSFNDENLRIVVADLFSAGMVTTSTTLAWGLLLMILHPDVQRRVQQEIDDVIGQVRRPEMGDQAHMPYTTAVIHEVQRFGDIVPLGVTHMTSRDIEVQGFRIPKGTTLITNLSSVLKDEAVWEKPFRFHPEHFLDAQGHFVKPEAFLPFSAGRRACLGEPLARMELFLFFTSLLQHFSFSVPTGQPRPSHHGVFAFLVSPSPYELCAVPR
IC50 [1] [µM],melting point,SMILES,effect on episodic memory deficits induced by scopolamine ([2]; 3 mg/kg oral),"MED, prevention of episodic memory deficits ([2]; scopolamine-treated mice) [mg/kg]","recognition index (RI) ([2]; scopolamine 1 mg/kg 30 minutes before acquisition, 0 mg/kg test compound, 3 h interval) [%]"
> 50,191 °C,Cc1nc(-c2ccc([C@H]3CN(c4nc(-c5ccncn5)cc(=O)n4C)CCO3)cc2)no1 [Compound of the present invention],ineffective,10,
> 50,179.8 °C (dec.),"Cn1ccnc1-c1ccc(C2CN(c3nc(-c4ccncn4)cc(=O)n3C)CCO2)cc1 (stereo not drawn) [Compound 4, 1-Methyl-2-{2-[4-(1-methyl-1H-imidazol-2-yl)-phenyl]-morpholin-4-yl}-1H-[4,4′]bipyrimidinyl-6-one]",,,

# More lines, now with the values behind:
SMILES,IC50 [1] [µM],melting point,effect on episodic memory deficits induced by scopolamine ([2]; 3 mg/kg oral),"MED, prevention of episodic memory deficits ([2]; scopolamine-treated mice) [mg/kg]","recognition index (RI) ([2]; scopolamine 1 mg/kg 30 minutes before acquisition, 0 mg/kg test compound, 3 h interval) [%]"
"Cn1c(N2CCOC(c3nc(-c4ccccc4)no3)C2)nc(-c2ccncn2)cc1=O (stereo not drawn) [Compound 1, 1-Methyl-2-[2-(3-phenyl-[1,2,4]oxadiazol-5-yl)-morpholin-4-yl]-1H-[4,4′]bipyrimidinyl-6-one]",> 50,,,,
"Cn1c(N2CCOC(c3noc(-c4ccccc4)n3)C2)nc(-c2ccncn2)cc1=O (stereo not drawn) [Compound 2, 1-Methyl-2-[2-(5-phenyl-[1,2,4]oxadiazol-3-yl)-morpholin-4-yl]-1H-[4,4′]bipyrimidinyl-6-one]",> 25,,,,
"CN1[C@@H]2C[C@@H](OC(=O)[C@H](CO)c3ccccc3)C[C@H]1[C@@H]1O[C@@H]12 [scopolamine, reference compound]",,,,,49.9
